According to patent publication US5889148A, “Antibiotic peptides” (priority 1995, dated 1999):
No end group written: not given here.

What was measured:
[1] = tested on: red blood cells; assay type: cell-based, human
Experimental: To 190 μl of the red blood cell-containing solution thus prepared, was added 10 μl of peptide solution prior to the incubation at 37° C. for 30 min. After incubation, centrifugation followed to obtain supernatant. Then, a level (%) of cell lysis caused by peptides was determined by the examination of absorbance at 576 nm (see: Table 12). At this moment, TEDFK, TEDFK-1A, M5, M6, M19, M22 and M32 were chosen as peptide fragments of Tenecin, and an antibiotic peptide KLK (see: Natori, S. et al., J. Biochem., 117(6):1312-1316(1995)) and a commercially available antibiotic, Amphotericin B(Sigma, USA) known to lyse a red blood cell were employed as controls, respectively.

[2] = tested on: Staphylococcus aureus (ATCC 6538); assay: MIC test, antibacterial activity; assay type: cell-based
Experimental: (§1) Antibacterial and antifungal activities of the peptides were determined by employing MIC test as follows:
(§2) To determine antifungal activity, a test organism Candida albicans (ATCC 36232) was cultured on Sabouraud dextrose agar plate for 24 to 48 hrs, and colonies thus grown were suspended on Sabouraud dextrose medium(Gibco, USA) to have O.D.530 =0.5(3×10^6 cells) and further diluted with 100-fold to have O.D.530 =0.005(3×10^4 cells). 100 μl of Candida albicans culture thus prepared was pipetted on 96-well microplates which had already contained 100 μl of a serially diluted peptide solution.
Antibacterial activity of peptide was determined analogously as above, with an exception that Staphylococcus aureus (ATCC 6538) selected as a test organism was cultured on M-3 medium(Gibco, USA) at 37° C. and cell number was adjusted to 2×10^8 cells before 100-fold dilution.

[3] = tested on: Candida albicans (ATCC 36232); assay: MIC test, antifungal activity; assay type: cell-based
Experimental: as §1, §2

[4] = Table 3, addition of an amino acid to N-terminal of TED
[5] = Table 4, addition of an amino acid to N-terminal of TEDF
[6] = Table 1, peptide fragments of Tenecin
[7] = Table 8, TEDFK derivatives of group 1
[8] = Table 11, enantiomer, retro-inverso, D-amino acid derivatives of M22

C[C@@H]1[C@H](O)[C@@H](C)/C=C/C=C/C=C/C=C/C=C/C=C/C=C/[C@H](O[C@@H]2O[C@H](C)[C@@H](O)[C@H](N)[C@@H]2O)C[C@@H]2O[C@](O)(C[C@@H](O)C[C@@H](O)[C@H](O)CC[C@@H](O)C[C@@H](O)CC(=O)O[C@H]1C)C[C@H](O)[C@H]2C(=O)O [Amphotericin B]
cell lysis (in words) [1]: cause cell lysis

LYCNGKRVCVCR--NH2 (LYCNGKRVCVCR-NH2; cysteine pairing not given here) [TEDL]
MIC S. aureus [2, 4]: 5 µg/mL | MIC C. albicans [3, 4]: 5 µg/mL

PYCNGKRVCVCR--NH2 (PYCNGKRVCVCR-NH2; cysteine pairing not given here) [TEDP]
MIC S. aureus [2, 4]: 5 µg/mL | MIC C. albicans [3, 4]: 5 µg/mL

SFYCNGKRVCVCR--NH2 (SFYCNGKRVCVCR-NH2; cysteine pairing not given here) [TEDFS]
MIC S. aureus [2, 5]: 50 µg/mL | MIC C. albicans [3, 5]: 10 µg/mL

SYCNGKRVCVCR--NH2 (SYCNGKRVCVCR-NH2; cysteine pairing not given here) [TEDS]
MIC S. aureus [2, 4]: 10 µg/mL | MIC C. albicans [3, 4]: 50 µg/mL

VTCDILSSVEAKGVKL--NH2 (VTCDILSSVEAKGVKL-NH2) [TEC]
MIC S. aureus [2, 6]: > 500 µg/mL | MIC C. albicans [3, 6]: > 100 µg/mL

VTCDILSVEAKGVKLNDAACAAHC-LFRGRSGGYCNGKRVCVCR--CO2 H [Tenecin]
MIC S. aureus [2, 6]: 3 µg/mL | MIC C. albicans [3, 6]: > 500 µg/mL

WFYCNGKRVCVCR--NH2 (WFYCNGKRVCVCR-NH2; cysteine pairing not given here) [M29]
MIC S. aureus [2, 7]: 30 µg/mL | MIC C. albicans [3, 7]: 25 µg/mL

WFYCNGKRVCVCR--NH2 (WFYCNGKRVCVCR-NH2; cysteine pairing not given here) [TEDFW]
MIC S. aureus [2, 5]: 1 µg/mL | MIC C. albicans [3, 5]: 10 µg/mL

WYCNGKRVCVCR--NH2 (WYCNGKRVCVCR-NH2; cysteine pairing not given here) [TEDW]
MIC S. aureus [2, 4]: 20 µg/mL | MIC C. albicans [3, 4]: 20 µg/mL

YCNGKRVCVCR--NH2 (YCNGKRVCVCR-NH2; cysteine pairing not given here) [TED]
MIC S. aureus [2, 6]: 10 µg/mL | MIC S. aureus [2, 4]: 10 µg/mL | antifungal activity (in words) [3]: excellent antifungal activity | MIC C. albicans [3, 6]: 10 µg/mL | MIC against C. albicans ([3]; Table 2, modification of N-terminal residues of TED): 10 µg/mL | MIC C. albicans [3, 4]: 10 µg/mL

YCNGKRVCVCRKK--NH2 (YCNGKRVCVCRKK-NH2; cysteine pairing not given here) [M15]
MIC S. aureus [2, 7]: 6.35 µg/mL | MIC C. albicans [3, 7]: 6.25 µg/mL

YFYCNGKRVCVCR--NH2 (YFYCNGKRVCVCR-NH2; cysteine pairing not given here) [TEDFY]
MIC S. aureus [2, 5]: 50 µg/mL | MIC C. albicans [3, 5]: 100 µg/mL

kfycngkrvcvcr-NH2 [Enantiomer of TEDFK]
MIC S. aureus [2, 8]: 6.35 µg/mL | MIC C. albicans [3, 8]: 6.35 µg/mL

rcvcvrkgncyfk-NH2 [Retro-inverso of TEDFK]
MIC S. aureus [2, 8]: 6.25 µg/mL | MIC C. albicans [3, 8]: 6.25 µg/mL
